Where two headings read alike, the source gives them in different places.
Tests used:
[1] = test system: A/teal/Egypt/MB.D128OP/2015 (H7N3, 128OP); test: organism not typed; format: cell-based, avian influenza H7N3 virus; details: read-out: IC50 128OP
[2] = test system: A/northern shoveler/Egypt/MB.D690OP/2016 (H7N3, 690OP); test: organism not typed; format: cell-based, avian influenza H7N3 virus; details: MDCK, 72 h, read-out: IC50 690OP
[3] = test system: A/Puerto Rico/8/34 (H1N1); test: microbe, parasite or virus in culture; format: cell-based; details: Influenza A virus, H1N1, MDCK, 72 h, read-out: IC50 H1N1
in vitro = details: dog
[4] = test system: A/teal/Egypt/MB.D487OP/2016 (H7N3, 487OP); test: organism not typed; format: cell-based, avian influenza H7N3 virus; details: MDCK, 72 h, read-out: IC50 487OP
[5] = test system: A/teal/Egypt/MB.D125OP/2015 (H7N3, 125OP); test: organism not typed; format: cell-based, avian influenza H7N3 virus; details: MDCK, 72 h, read-out: IC50 125OP
[6] = test system: Madin-Darby canine kidney (MDCK) cells; details: dog

| SMILES | IC50 ([1]; MDCK, 72 h) | IC50 [2] | IC50 [3] | CC50 (in vitro) | IC50 [4] | IC50 [5] | IC50 [1] | CC50 [6] |
| --- | --- | --- | --- | --- | --- | --- | --- | --- |
| CCOC(=O)C1=C[C@@H](OC(CC)CC)[C@H](NC(C)=O)[C@@H](N)C1 [Oseltamivir, oseltamivir] | 85.7 µM | 6.46 µM | 51.2 µM | 516 µM | 15.7 µM | 408 µM | – | – |
| NC(=O)c1nc(F)c[nH]c1=O [Favipiravir, favipiravir] | 6.02 µM | 4.5 µM | 57.7 µM | 1250 µM | 5.4 µM | 3.9 µM | 6.02 µM | – |
| CC(=O)N[C@H]1[C@H]([C@H](O)[C@H](O)CO)OC(C(=O)O)=C[C@@H]1N=C(N)N [Zanamivir, zanamivir] | 85 µM | 23.3 µM | 180 µM | 1110 µM | 14.1 µM | 17.1 µM | – | – |
| CCC(CC)COC(=O)[C@H](C)N[P@](=O)(OC[C@H]1O[C@@](C#N)(c2ccc3c(N)ncnn23)[C@H](O)[C@@H]1O)Oc1ccccc1 [Remdesivir, remdesivir] | 26 µM | 41.6 µM | 140 µM | – | 19.1 µM | 44.5 µM | – | 997 µM |
| NC12CC3CC(CC(C3)C1)C2 [Amantadine, amantadine] | 45.2 µM | 6.5 µM | 77.3 µM | 584 µM | 5.17 µM | 17 µM | – | – |
